US7229803B2, “Reaction of (di)amines in the presence of a lysine oxidase and of a reducing agent” (BASF Aktiengesellschaft, priority 2001, dated 2007)

Biological target: T1, lysine oxidase from Pichia pastoris (Komagataella pastoris, UniProt Q96X16)
T1 construct: Purification of the Lysine Oxidase from Pichia pastoris; endogenous in cells; host or cells: Pichia pastoris (enzyme purified from the yeast itself)
T1 sequence (Q96X16 19-787): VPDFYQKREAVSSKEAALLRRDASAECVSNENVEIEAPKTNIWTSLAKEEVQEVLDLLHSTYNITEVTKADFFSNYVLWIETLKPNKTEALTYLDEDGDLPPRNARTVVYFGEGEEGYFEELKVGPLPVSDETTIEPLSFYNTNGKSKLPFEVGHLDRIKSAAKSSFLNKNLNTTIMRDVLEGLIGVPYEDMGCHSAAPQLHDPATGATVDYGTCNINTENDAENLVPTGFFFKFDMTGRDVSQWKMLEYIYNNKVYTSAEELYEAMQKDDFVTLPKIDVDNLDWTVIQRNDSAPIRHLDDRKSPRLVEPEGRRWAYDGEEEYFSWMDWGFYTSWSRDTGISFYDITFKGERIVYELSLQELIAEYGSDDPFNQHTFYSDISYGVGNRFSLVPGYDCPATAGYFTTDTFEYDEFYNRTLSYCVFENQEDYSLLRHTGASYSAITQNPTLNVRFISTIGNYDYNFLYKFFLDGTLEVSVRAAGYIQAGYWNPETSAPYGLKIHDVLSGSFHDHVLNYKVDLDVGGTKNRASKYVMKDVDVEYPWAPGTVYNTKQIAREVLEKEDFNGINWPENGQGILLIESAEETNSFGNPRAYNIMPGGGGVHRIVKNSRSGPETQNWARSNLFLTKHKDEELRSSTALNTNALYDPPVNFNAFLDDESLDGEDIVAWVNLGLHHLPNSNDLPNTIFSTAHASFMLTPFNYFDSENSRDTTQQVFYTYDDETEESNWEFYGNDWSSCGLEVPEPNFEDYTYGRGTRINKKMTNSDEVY
Experiment: Assays with various substrates: conversion in the presence of lysine oxidase (peroxidase/4-aminoantipyrine/phenol dye, absorption at 500 nm)
Format: biochemical
Conditions: substrate 18.75-1200 μmol/l in water, no reducing agent, L-lysine = 100
Protocol: Measurement series in each case with a concentration of 1 200, 600, 300, 150, 75, 37.5 and 18.75 μmol of (di)amine per 1 l of water were carried out in a microtiter plate. 2 measurement series were carried out in each case; one with enzyme and one without enzyme as reference.
100 μl of each of the diluted solutions were taken. To this solution were added 25 μl of lysine oxidase and 40 μl of 35 millimolar phenol solution in 200 millimolar potassium phosphate/potassium diphosphate solution with a pH of 7.5, 40 μl of a 2 millimolar aqueous 4-aminoantipyrine solution and 40 μl of a solution of 0.35 mg of peroxidase (horseradish from Sigma) in 1 ml of water.
In the reference measurement series, the 25 μl of lysine oxidase were replaced by 25 μl of water. A violet dye was formed by the […] produced on conversion of the substrates and its absorption in the UV at 500 nm was measured (T. Uwajima, O. Terada, Methods in Enzymology 1982, 89, 243 ff.).

Row | Compound | Relative conversion rate compared with L-lysine in % [%]
1 | NCCCCN [1,4-Diaminobutane] | 133
2 | NCCCCCCN [1,6-Diaminohexane] | 180
3 | NCCCCCCCCN [1,8-Diaminooctane] | 197
4 | NCc1cccnc1 [3-Aminomethylpyridine] | 128
5 | NCc1ccccc1 [Benzylamine] | 108
6 | NCCCC[C@@H](N)C(=O)O [D-Lysine] | 100
7 | NCC(O)CCC(N)C(=O)O [D/L-5-Hydroxylysine] | 60
8 | NCCCC(N)C(=O)OC(F)F [D/L-Ornithine difluoromethyl ester] | 39
9 | NCCO [Ethanolamine] | 50
10 | NCCN [Ethylenediamine] | 84
11 | CCOC(=O)CN [Glycine ethyl ester] | 93
12 | NCCCC[C@H](N)C(=O)O [L-Lysine] | 100
13 | NCCCNCCCCNCCCN [Spermine] | 185
14 | CCCCN [n-Butylamine] | 63
15 | CC(=O)N[C@@H](CCCCN)C(=O)O [α-N-Acetyllysine] | 120
